Reference: patent publication US12543734B2, “Herbicidal compositions comprising dimethenamid” (BASF SE, priority 2024, dated 2026)

Key:
Type in all cases: in vivo
[1] = test system: Amaranthus palmeri (AMAPA); test: Example 1 post-emergence field trial (1% MSO); conditions: 20-21 DAT, B-2 735 g ai/ha
Procedure: (§1) In the examples below, using the method of S. R. Colby (1967) “Calculating synergistic and antagonistic responses of herbicide combinations”, Weeds 15, p. 22ff., the value E, which is expected if the activity of the individual active compounds is only additive, was calculated:
(§2) [formula] • where • X=percent activity using active herbicide A at an application rate a; • Y=percent activity using active herbicide B (e.g. DMTA-p) at an application rate b; • E=expected activity (in %) by A+B at application rates a+b.
(§3) If the value found experimentally is higher than the value E calculated according to Colby, a synergistic effect is present.
(§4) On field test sites, natural weed infestation or seeded weeds were treated post-emergence of the weeds.
(§5) In the field trials, the weeds were treated as indicated below.
(§6) In the following experiments, the herbicidal activity for the individual herbicidal compositions (solo and mixture applications) was assessed at the indicated days after treatment (DAT). The assessments for the damage on undesired weeds caused by the composition was carried out using a scale from 0 to 100%, compared to the untreated control plants. Here, 0 means no damage and 100 means complete destruction of the plants.
(§7) Post-Emergence Application of Herbicide A-1 (A-1) and Dimethenamid-P (DMTA-p; B-2) in Field Trials
(§8) Herbicide A-1 (100 g/l) and DMTA-p (720 g/l) were, together with addition of 1% MSO (methylated sed oil) as adjuvant, formulated in water as distribution medium (water volume 200 l/ha) and sprayed with commercial flat fan nozzles.

[2] = test system: Amaranthus tamariscinus (AMATA); test: Example 1 post-emergence field trial (1% MSO); conditions: height 20-25 cm, 20-21 DAT, A-1 20 g ai/ha, B-2 735 g ai/ha
Procedure: as §1, §2, §3, §4, §5, §6, §7, §8

[3] = test system: Digitaria sanguinalis (DIGSA); test: Example 1 post-emergence field trial (1% MSO); conditions: height 2-13 cm, 20-21 DAT, A-1 20 g ai/ha, B-2 735 g ai/ha
Procedure: as §1, §2, §3, §4, §5, §6, §7, §8

[4] = test system: Echinochloa crus-galli (ECHCG); test: Example 1 post-emergence field trial (1% MSO); conditions: height 10-15 cm, 20-21 DAT, B-2 735 g ai/ha
Procedure: as §1, §2, §3, §4, §5, §6, §7, §8

Helanthus annuus (HELAN) [5] = test: Example 1 post-emergence field trial (1% MSO); conditions: height 20-25 cm, 20-21 DAT, A-1 20 g ai/ha, B-2 735 g ai/ha
Procedure: as §1, §2, §3, §4, §5, §6, §7, §8

Setaria faberi (SETFA) = test: Example 1 post-emergence field trial (1% MSO); conditions: height 7-13 cm, 20-21 DAT, A-1 20 g ai/ha, B-2 735 g ai/ha
Procedure: as §1, §2, §3, §4, §5, §6, §7, §8

Setaria viridis (SETVI) = test: Example 1 post-emergence field trial (1% MSO); conditions: height 7-13 cm, 20-21 DAT, A-1 20 g ai/ha, B-2 735 g ai/ha
Procedure: as §1, §2, §3, §4, §5, §6, §7, §8

Sorghum bicolor (SORVU) [6] = test: Example 1 post-emergence field trial (1% MSO); conditions: height 25-30 cm, 20-21 DAT, A-1 30 g ai/ha, B-2 735 g ai/ha
Procedure: as §1, §2, §3, §4, §5, §6, §7, §8

[7] = test system: Abutilon theophrasti (ABUTH); test: Example 2 post-emergence field trial (1% MSO and AMS); conditions: height 10-20 cm, 21-24 DAT, A-1 12.5 g ai/ha, B-2 735 g ai/ha
Procedure: as §1, §2, §3, §4, §5, §6, §7
(§9) Herbicide A-1 (100 g/l) and DMTA-p (720 g/l) were, together with addition of 1% MSO (methylated sed oil) and AMS (ammonium sulfate) as adjuvant, formulated in water as distribution medium (water volume 200 l/ha) and sprayed with commercial flat fan nozzles.

[8] = test system: Amaranthus palmeri (AMAPA); test: as above; conditions: B-2 735 g ai/ha
Procedure: as §1, §2, §3, §4, §5, §6, §7, §9

[9] = test system: Amaranthus retroflexus (AMARE); test: as above; conditions: B-2 735 g ai/ha
Procedure: as §1, §2, §3, §4, §5, §6, §7, §9

[10] = test system: Amaranthus tamariscinus (AMATA); test: as above; conditions: B-2 735 g ai/ha
Procedure: as §1, §2, §3, §4, §5, §6, §7, §9

[11] = test system: Chenopodium album (CHEAL); test: as above; conditions: height 17-23 cm, 21-24 DAT, A-1 12.5 g ai/ha, B-2 735 g ai/ha
Procedure: as §1, §2, §3, §4, §5, §6, §7, §9

[12] = test system: Digitaria sanguinalis (DIGSA); test: as above; conditions: height 2-8 cm, 18-21 DAT, A-1 25 g ai/ha, B-2 735 g ai/ha
Procedure: as §1, §2, §3, §4, §5, §6, §7, §9

[13] = test system: Echinochloa crus-galli (ECHCG); test: as above; conditions: height 7-15 cm, 18-21 DAT, B-2 735 g ai/ha
Procedure: as §1, §2, §3, §4, §5, §6, §7, §9

Eleusine indica (ELEIN) [14] = test: as above; conditions: B-2 735 g ai/ha
Procedure: as §1, §2, §3, §4, §5, §6, §7, §9

[15] = test system: Portulaca oleracea (POROL); test: as above; conditions: B-2 735 g ai/ha
Procedure: as §1, §2, §3, §4, §5, §6, §7, §9

Glycine max (GLXMA) [16] = test: Example 3 post-emergence field trial, volunteer crop plants (1% MSO); conditions: height 6-15 cm, 20 DAT, A-1 30 g ai/ha, B-2 735 g ai/ha
Procedure: as §1, §2, §3, §4, §5, §6, §7, §8

Zea mays (ZEAMX) [17] = test: as above; conditions: height 43-51 cm, 20 DAT, B-2 735 g ai/ha
Procedure: as §1, §2, §3, §4, §5, §6, §7, §8

Eleusine indica (ELEIN) [18] = test: Example 4 post-emergence field trial (1% MSO and AMS); conditions: height 15-20 cm, 21-24 DAT, A-1 12.5 g ai/ha, B-2 735 g ai/ha
Procedure: as §1, §2, §3, §4, §5, §6, §7, §9

Glycine max (GLXMA) [19] = test: as above; conditions: 21-24 DAT, A-1 12.5 g ai/ha, B-2 735 g ai/ha
Procedure: as §1, §2, §3, §4, §5, §6, §7, §9

Helanthus annuus (HELAN) [20] = test: as above; conditions: height 10-20 cm, 20 DAT, A-1 12.5 g ai/ha, B-2 735 g ai/ha
Procedure: as §1, §2, §3, §4, §5, §6, §7, §9

Sorghum bicolor (SORVU) [21] = test: as above; conditions: height 15-20 cm, 20 DAT, A-1 12.5 g ai/ha, B-2 735 g ai/ha
Procedure: as §1, §2, §3, §4, §5, §6, §7, §9

Zea mays (ZEAMX) [22] = test: as above; conditions: 21-24 DAT, B-2 735 g ai/ha
Procedure: as §1, §2, §3, §4, §5, §6, §7, §9

[23] = height 10-18 cm, A-1 20 g ai/ha
[24] = height 10-18 cm, A-1 30 g ai/ha
[25] = height 7-15 cm, 18-21 DAT, A-1 12.5 g ai/ha
[26] = height 7-15 cm, 18-21 DAT, A-1 25 g ai/ha
[27] = height 20-25 cm, 21-24 DAT, A-1 12.5 g ai/ha
[28] = height 10-20 cm, 21-24 DAT, A-1 25 g ai/ha
[29] = height 17-28 cm, 21-24 DAT, A-1 12.5 g ai/ha
[30] = height 5-13 cm, 18-21 DAT, A-1 12.5 g ai/ha
[31] = height 7-10 cm, 18-21 DAT, A-1 12.5 g ai/ha
[32] = height 7-10 cm, 18-21 DAT, A-1 25 g ai/ha
[33] = height 15-20 cm, 21-24 DAT, A-1 25 g ai/ha
[34] = height 2-13 cm, 18-21 DAT, A-1 25 g ai/ha
[35] = height 10-20 cm, 21-24 DAT, A-1 12.5 g ai/ha

## CCOC(=O)COc1ccccc1Oc1nc(-n2c(=O)cc(C(F)(F)F)n(C)c2=O)c(F)cc1Cl [A-1, ethyl 2-[2-[[3-chloro-5-fluoro-6-[3-methyl-2,6-dioxo-4-(trifluoromethyl)pyrimidin-1-yl]-2-pyridyl]oxy]phenoxy]acetate]
[1]; height 2-12 cm, A-1 20 g ai/ha
  % herbicidal activity: 99%
[1]; height 2-12 cm, A-1 30 g ai/ha
  % herbicidal activity: 99%
[1]; [23]
  % herbicidal activity: 77%
[1]; [24]
  % herbicidal activity: 80%
[2]
  % herbicidal activity: 70%
[3]
  % herbicidal activity: 97%
[4]; A-1 20 g ai/ha
  % herbicidal activity: 77%
[4]; A-1 30 g ai/ha
  % herbicidal activity: 80%
Helanthus annuus (HELAN) [5]
  % herbicidal activity: 99%
Setaria faberi (SETFA)
  % herbicidal activity: 97%
Setaria viridis (SETVI)
  % herbicidal activity: 97%
Sorghum bicolor (SORVU) [6]
  % herbicidal activity: 93%
[7]
  % herbicidal activity: 98%
[8]; [25]
  % herbicidal activity: 42%
[8]; [26]
  % herbicidal activity: 64%
[8]; [27]
  % herbicidal activity: 74%
[9]; [26]
  % herbicidal activity: 85%
[9]; [28]
  % herbicidal activity: 82%
[9]; [29]
  % herbicidal activity: 67%
[10]; [30]
  % herbicidal activity: 90%
[10]; [26]
  % herbicidal activity: 85%
[10]; [28]
  % herbicidal activity: 77%
[10]; [29]
  % herbicidal activity: 67%
[11]
  % herbicidal activity: 77%
[12]
  % herbicidal activity: 97%
[13]; A-1 12.5 g ai/ha
  % herbicidal activity: 82%
[13]; A-1 25 g ai/ha
  % herbicidal activity: 85%
Eleusine indica (ELEIN) [14]; [31]
  % herbicidal activity: 18%
Eleusine indica (ELEIN) [14]; [32]
  % herbicidal activity: 78%
Eleusine indica (ELEIN) [14]; [33]
  % herbicidal activity: 55%
[15]; [34]
  % herbicidal activity: 93%
[15]; [35]
  % herbicidal activity: 80%
[15]; [28]
  % herbicidal activity: 87%
Glycine max (GLXMA) [16]
  % herbicidal activity: 98%
Zea mays (ZEAMX) [17]; A-1 20 g ai/ha
  % herbicidal activity: 72%
Zea mays (ZEAMX) [17]; A-1 30 g ai/ha
  % herbicidal activity: 88%
Eleusine indica (ELEIN) [18]
  % herbicidal activity: 27%
Glycine max (GLXMA) [19]
  % herbicidal activity: 90%
Helanthus annuus (HELAN) [20]
  % herbicidal activity: 93%
Sorghum bicolor (SORVU) [21]
  % herbicidal activity: 87%
Zea mays (ZEAMX) [22]; A-1 12.5 g ai/ha
  % herbicidal activity: 67%
Zea mays (ZEAMX) [22]; A-1 25 g ai/ha
  % herbicidal activity: 83%

## COC[C@H](C)N(C(=O)CCl)c1c(C)csc1C [B-2, dimethenamid-P]
[1]; height 2-12 cm, A-1 20 g ai/ha
  % herbicidal activity: 37%
[1]; height 2-12 cm, A-1 30 g ai/ha
  % herbicidal activity: 37%
[1]; [23]
  % herbicidal activity: 0%
[1]; [24]
  % herbicidal activity: 0%
[2]
  % herbicidal activity: 0%
[3]
  % herbicidal activity: 0%
[4]; A-1 20 g ai/ha
  % herbicidal activity: 0%
[4]; A-1 30 g ai/ha
  % herbicidal activity: 0%
Helanthus annuus (HELAN) [5]
  % herbicidal activity: 0%
Setaria faberi (SETFA)
  % herbicidal activity: 0%
Setaria viridis (SETVI)
  % herbicidal activity: 0%
Sorghum bicolor (SORVU) [6]
  % herbicidal activity: 0%
[7]
  % herbicidal activity: 35%
[8]; [25]
  % herbicidal activity: 0%
[8]; [26]
  % herbicidal activity: 0%
[8]; [27]
  % herbicidal activity: 0%
[9]; [26]
  % herbicidal activity: 0%
[9]; [28]
  % herbicidal activity: 47%
[9]; [29]
  % herbicidal activity: 0%
[10]; [30]
  % herbicidal activity: 15%
[10]; [26]
  % herbicidal activity: 0%
[10]; [28]
  % herbicidal activity: 47%
[10]; [29]
  % herbicidal activity: 0%
[11]
  % herbicidal activity: 0%
[12]
  % herbicidal activity: 5%
[13]; A-1 12.5 g ai/ha
  % herbicidal activity: 0%
[13]; A-1 25 g ai/ha
  % herbicidal activity: 0%
Eleusine indica (ELEIN) [14]; [31]
  % herbicidal activity: 0%
Eleusine indica (ELEIN) [14]; [32]
  % herbicidal activity: 0%
Eleusine indica (ELEIN) [14]; [33]
  % herbicidal activity: 0%
[15]; [34]
  % herbicidal activity: 7%
[15]; [35]
  % herbicidal activity: 28%
[15]; [28]
  % herbicidal activity: 28%
Glycine max (GLXMA) [16]
  % herbicidal activity: 0%
Zea mays (ZEAMX) [17]; A-1 20 g ai/ha
  % herbicidal activity: 0%
Zea mays (ZEAMX) [17]; A-1 30 g ai/ha
  % herbicidal activity: 0%
Eleusine indica (ELEIN) [18]
  % herbicidal activity: 0%
Glycine max (GLXMA) [19]
  % herbicidal activity: 0%
Helanthus annuus (HELAN) [20]
  % herbicidal activity: 0%
Sorghum bicolor (SORVU) [21]
  % herbicidal activity: 0%
Zea mays (ZEAMX) [22]; A-1 12.5 g ai/ha
  % herbicidal activity: 0%
Zea mays (ZEAMX) [22]; A-1 25 g ai/ha
  % herbicidal activity: 0%
